Assay results published in US9504673B2, “Agent for the prophylaxis and treatment of highly pathogenic infectious diseases” (priority 2009, dated 2016).
“And” between values parts separate entries of the source, which are not always exact repeats. Equal entries are not always repeated. Where two headings read alike, the source gives them in different places.

Assays:
[1] = system: influenza virus strain A/chicken/Kurgan/Russia/02/05 (H5N1); design: species or system white mice; details: mouse, in vivo, po
[2] = system: severe acute respiratory syndrome virus; design: species or system Syrian hamsters; details: hamster, in vivo, po
[3] = Acute toxicity study of glutaryl histamine; details: male, nonlinear white (outbred), mouse, in vivo, po

Row | Structure (SMILES) | Death rate ([1]; 5 mg/kg) | Deaths ([1]; 5 mg/kg) | Increase of mean lifetime Δ ([1]; 5 mg/kg) | Mean lifetime of animals in the group ([1]; 5 mg/kg) | Protective efficacy against death, % ([1]; 5 mg/kg) | Death rate ([1]; 15 mg/kg) | Increase of mean lifetime Δ ([1]; 15 mg/kg) | Mean lifetime of animals in the group ([1]; 15 mg/kg) | Protective efficacy against death, % ([1]; 15 mg/kg) | Therapeutic efficacy, % ([2]; 5 mg/kg) | Virus yield in the lungs at peak of infection (on day 4) 1 g PFU/ml ([2]; 5 mg/kg) | Virus yield in the lungs at peak of infection (on day 4) Δ, 1 g ([2]; 5 mg/kg) | Therapeutic efficacy, % ([2]; 15 mg/kg) [%] | Virus yield in the lungs at peak of infection (on day 4) 1 g PFU/ml ([2]; 15 mg/kg) | Virus yield in the lungs at peak of infection (on day 4) Δ, 1 g ([2]; 15 mg/kg) | LD50 [3] [mg/kg] | Death rate ([1]; 135 mg/kg) | Increase of mean lifetime Δ ([1]; 135 mg/kg) | Mean lifetime of animals in the group ([1]; 135 mg/kg)
1 | O=C(O)CCCC(=O)NCCc1c[nH]cn1 [glutaryl histamine] | 12/20 | 11 | 2.7 days and 1.8 days | 10.9 days and 10.0 days | 45% and 40% | 12/20 and 13/20 | 2.4 days and 2.0 days | 11.0 days and 8.7 days | 40% and 35% | 20.0% and 30.0% | 7.5 1 g PFU/ml and 7.0 1 g PFU/ml | 0.8 1 g and 0.9 1 g | 40 | 3.8 1 g PFU/ml | 2.4 1 g | > 10000 | – | – | –
2 | CCOC(=O)c1c(CSc2ccccc2)n(C)c2cc(Br)c(O)c(CN(C)C)c12 [Arbidol ®, reference compound] | – | – | – | – | – | – | – | – | – | – | – | – | – | – | – | – | 15/20 and 18/20 | 1.4 days and 1.1 days | 8.0 days and 7.2 days
